{"source": "patent EP0382875A1", "about": "“Dispersant for biologically active peptide” (Matuo, Yuhsy, priority 1989, dated 1990)", "key": {"BALB/C3T3 fibroblasts": {"system": "BALB/C3T3 fibroblasts", "assay": "Cytotoxicity of dispersants: DNA synthesis activity ([3H]thymidine incorporation) in cultured fibroblasts", "assay_type": "cell-based, mouse", "conditions": "added to medium at 1 x 10⁻⁴ to 1 x 10⁻¹%, culture 19 hours; compared with NOG, SB12, Triton X-100, NP-40", "experimental": "Upon culturing BALB/C3T3 fibroblasts in bovine serum-supplemented medium on a 24 well plate, CHAPS, NOG (1-O-n-octyl-β-D-glucopyranoside), SB12 (3-(dodecylmethylammonio)-1-propane sulfonate: sulfobetaine 12), Triton X-100 and NP-40 (Nonidet P-40) were added to the medium at concentrations of 1 x l0⁻⁴ to 1 x 10⁻¹%.\n(§1) BALB/C3T3 cells, a kind of fibroblasts established from a mouse fetus were suspended in 3% bovine serum-containing DME medium (DME-3% CS) at a concentration of 2 x 10⁴/ml. One milliliter of the suspension was taken and cultured at 37°C for 5 hours on a 24 well tissue culture dish. Then, the medium was replaced by 1 ml of DME-1% CS followed by culturing at 37°C for 48 hours. A sample (2 to 20 µl) was added thereto, followed by culturing for further 16 hours.\n(§2) Then, 10 µl of 2 x 10⁻⁵ M[³H]thymidine (40 µCi/ml) was supplemented. After culturing for 3 hours, radioactivity incorporated into DNA fraction was measured. That is, after the medium was removed, cells were rinsed with 1 ml of PBS (phosphate-buffered saline) once and 3 times with 1 ml of cold 10% TCA (trichloroacetic acid). Then, 1 ml of 0.5 M NaOH was added thereto. After allowing to stand at room temperature for 15 minutes, the mixture was neutralized with 5 M HCl. Scintillator cocktail, 6 ml, was added thereto to measure the radioactivity."}, "BALB/C3T3 cells [1]": {"system": "BALB/C3T3 cells", "assay": "Adsorption of FGF to containers of different kinds, with or without CHAPS (FGF activity after storage)", "assay_type": "physicochemical, mouse", "conditions": "addition of 0.1% CHAPS; FGF 0.5 µg/ml PBS; 4°C for 2 days", "experimental": "(§3) Next, examples of the present invention are shown. DNA synthesis activity or FGF activity of samples was determined by the method shown in Example 1 and expressed by cpm (counts per minute) x 10⁻⁴/well/3h.\nas §1\nas §2, with “After allowing to stand at room temperature for 15 minutes, the mixture was neutralized with 5 M HCl.” left out\nCommercially available FGF (fibroblast growth factor) was charged in containers shown in Table 1, respectively, in 0.5 µg/ml PBS; the containers were charged with or without 0.1% CHAPS. After storing at 4°C for 2 days, FGF activity in each container was measured."}, "BALB/C3T3 cells [2]": {"system": "BALB/C3T3 cells", "assay": "Thermal stability of FGF at 50°C with or without CHAPS (FGF activity)", "assay_type": "physicochemical, mouse", "conditions": "FGF 5 µg/ml, 1% CHAPS, 50°C for 1 hour", "experimental": "as §3, §1, §2\nAfter commercially available FGF (5 µg/ml) added with 1% CHAPS or added with no CHAPS was allowed to stand at 50°C for 1 hour, stability of FGF was examined. […]"}, "[3]": {"assay": "Heparin-5PW HPLC of extract from BPH tissues with or without CHAPS (elution of FGF activity)", "assay_type": "physicochemical, human", "conditions": "Heparin-5PW HPLC of BPH tissue extract, 0.1% CHAPS versus no CHAPS", "source_text": "An extract from human benign prostatic hypertrophy (BPH) tissues was subjected to Heparin-5PW HPLC without adding any CHAPS thereto.\nAn extract from BPH tissues was subjected to Heparin-5PW HPLC in the presence of 0.1% CHAPS thereto."}, "[4]": {"assay": "Solubility in water and organic solvents", "assay_type": "physicochemical", "source_text": "That is, CHAPS or CHAPSO can be removed by utilizing difference in solubility in organic solvents. CHAPS or CHAPSO is soluble in water, methanol and dimethylsulfoxide but insoluble in other solvents (acetone, acetonitrile, ether, chloroform, 2-methyl-1-propanol, N,N-dimethylformamide, isoamly alcohol, ethanol, hexane, xylene, petroleum ether, benzene, n-heptane, toluene). Utilizing the difference in solubility, CHAPS or CHAPSO can easily be removed."}, "[5]": {"conditions": "in other solvents (acetone, acetonitrile, ether, chloroform, 2-methyl-1-propanol, N,N-dimethylformamide, isoamyl alcohol, ethanol, hexane, xylene, petroleum ether, benzene, n-heptane, toluene)"}, "[6]": {"conditions": "in water, methanol and dimethylsulfoxide"}}}
{"smiles": "C[C@H](CCC(=O)NCCC[N+](C)(C)CCCS(=O)(=O)[O-])[C@H]1CC[C@H]2[C@@H]3[C@H](O)C[C@@H]4C[C@H](O)CC[C@]4(C)[C@H]3C[C@H](O)[C@]12C", "note": "[CHAPS, 3-[(3-cholamidopropyl)dimethylammonio]-1-propane sulfonate]", "values": [{"measurement": "cytotoxicity (DNA synthesis activity)", "setting": "BALB/C3T3 fibroblasts", "result": "least cytotoxicity among various surface active agents"}, {"measurement": "adsorption of FGF onto the containers", "setting": "BALB/C3T3 cells [1]", "result": "effectively prevented"}, {"measurement": "effect on thermal instability of FGF", "setting": "BALB/C3T3 cells [2]", "result": "stabilizing effect"}, {"measurement": "adsorption of FGF onto carrier and device during chromatographies", "setting": "[3]", "result": "prevents adsorption of FGF onto a carrier and device"}, {"measurement": "solubility", "setting": "[4]; [5]", "result": "insoluble"}, {"measurement": "solubility", "setting": "[4]; [6]", "result": "soluble"}]}
{"smiles": "C[C@H](CCC(=O)NCCC[N+](C)(C)CC(O)CS(=O)(=O)[O-])[C@H]1CC[C@H]2[C@@H]3[C@H](O)C[C@@H]4C[C@H](O)CC[C@]4(C)[C@H]3C[C@H](O)[C@]12C", "note": "(some centres unmarked) [CHAPSO, 3-(3-cholamidopropyl)dimethylammonio]-2-hydroxy-1-propane sulfonate]", "values": [{"measurement": "solubility", "setting": "[4]; [5]", "result": "insoluble"}, {"measurement": "solubility", "setting": "[4]; [6]", "result": "soluble"}]}
